Numbers after ± are expanded uncertainties.
Details: Liquid, Ebulliometric method (Recirculating still)

CC(C)CCl [1-chloro-2-methylpropane]
vapor or sublimation pressure (288.15 K): 13 ± 0.1 kPa | vapor or sublimation pressure (298.15 K): 20.35 ± 0.1 kPa | vapor or sublimation pressure (308.15 K): 30.45 ± 0.11 kPa

CCCCCl [1-chlorobutane]
vapor or sublimation pressure (288.15 K): 8.4 ± 0.1 kPa | vapor or sublimation pressure (298.15 K): 13.52 ± 0.1 kPa | vapor or sublimation pressure (308.15 K): 21.04 ± 0.1 kPa

CC(C)(C)Cl [2-chloro-2-methylpropane]
vapor or sublimation pressure (288.15 K): 26.42 ± 0.11 kPa | vapor or sublimation pressure (298.15 K): 40.13 ± 0.11 kPa | vapor or sublimation pressure (308.15 K): 59.52 ± 0.12 kPa

CCC(C)Cl (stereo not given) [2-chlorobutane]
vapor or sublimation pressure (288.15 K): 13.36 ± 0.1 kPa | vapor or sublimation pressure (298.15 K): 20.91 ± 0.1 kPa | vapor or sublimation pressure (308.15 K): 31.55 ± 0.11 kPa

CCCCCCC [heptane]
vapor or sublimation pressure (288.15 K): 3.63 ± 0.1 kPa | vapor or sublimation pressure (298.15 K): 6.095 ± 0.1 kPa | vapor or sublimation pressure (308.15 K): 9.865 ± 0.1 kPa

— the NIST ThermoML archive (doi:10.1016/j.fluid.2015.09.031)
